# Columns and labels:
# Format in all cases: in vivo
# [1] = Masking bitterness of quinine, test panel, equibitter solution; conditions: 250 ppm quinine
# Procedure: The bitter masking effect against quinine was assayed, following an analogous procedure to the one used in Example 10 for paracetamol.
# The following substances were assayed: NHDC alone, beta-cyclodextrin alone, a composition comprising NHDC and beta-cyclodextrin in a molar ratio 1:1 (Example F) and a composition comprising NHDC and beta-cyclodextrin in a molar ratio 1:3 (Example G).
# Analogously to Example 10, several aqueous solutions were prepared, each containing 250 ppm of quinine and different concentrations of the tested substance, namely, 5, 25, 50, 75 and 100 ppm. For each tested solution, a test panel determined the equibitter quinine solution, and the masking effect was calculated using a formula analogous to formula III (substituting 5000 with […]).
# The masking synergies between beta-cyclodextrin and NHDC in Examples F and G were calculated following an analogous procedure to the one disclosed in Example 10. Therefore, using the molecular weight of each component, the amounts of beta-cyclodextrin and NHDC contained in each amount of the combinations of Examples F and G were calculated and, then, the antibittering contribution of each component was calculated on the basis of the data of Table 19. The expected masking effect was calculated as the sum of the contributions of each component, and, finally, the masking synergy was calculated (using Formula IV).
# [2] = Sugar substitution in sweetened dark chocolate, calibrated panel
# Description: The percentages in the table are expressed by weight.
# The reference product (Formula 1 of Table 11) contained a commercial chocolate with 70% cacao content (Lindt®) and 6% of powdered sugar.
# Along all the assays performed, the goal was to maximize the sucrose substitution while maintaining the same overall taste profile. A calibrated panel was not able to distinguish the reference from the different prototypes tested.
# The method used for preparing the dark chocolate products of this assay was as follows. Firstly, 1% solution of NHDC in glycerol was prepared by gradually adding 1 g of NHDC to 99 g of glycerol, mixing and heating to 60° C. for 15 minutes, until a transparent solution is obtained. The solution was left to cool off to room temperature. The dark chocolate was weighed and heated to 45° C. and, when the chocolate was completely melted, powdered sugar was added and, optionally, also the 1% NHDC glycerol solution or the composition of Example B, and the mixture was then thoroughly mixed. The mixture was heated until reaching 45° C., then it was let to cool to 30° C., and then it was poured into molds (6 g/piece). The molds with the chocolate were put in the fridge for a quicker hardening.
# [3] = Taste profile by calibrated taste panel at concentrations equisweet to 3% sucrose; conditions: 0- to 5-point scale
# Procedure: The overall taste profile achieved with the sweetening composition of the present invention was evaluated and compared with the target taste profile of sucrose.
# For this assay, all samples were evaluated at the same sweetness level, so each sample was used at a concentration which was equisweet to 3% sucrose. For each sample, the following parameters were evaluated: • Time to first sweetness detection • Time to maximum sweetness • Lingering (time for the sweetness to disappear) • Off-flavour: menthol, liquorice (any tastes that are different from sweetness) • Mouthfeel (density, i.e., the perceived viscosity in the mouth)
# These evaluations were carried out by a calibrated taste panel, and conducted at room temperature.
# Each of those parameters was evaluated on a 0- to 5-point scale. The values for sucrose were the reference, and were considered the target to emulate.
# [4] = Sucrose substitution in orange juice based soft drink, triangular testing by calibrated panel
# Description: The purpose of this example was to maximize the sugar substitution in an orange juice based soft drink while maintaining the same overall taste profile. A calibrated panel was not able to distinguish the reference from the different prototypes in triangular testing.
# The reference product (Formula 1 of Table 10) contained 10% added sucrose. The maximum sucrose substitution achieved with NHDC was 15% out of the initial 10 by using 10 ppm of NHDC (Formula 2 of Table 10). With the sweetening composition of the present invention, it was possible to increase the sucrose substitution, up to 25% without changing the taste profile of the beverage (Formula 3 of Table 10).
# The composition of each beverage is disclosed in Table 10. For the preparation of these beverages, an orange juice concentrate 65° Bx (Dallant) and orange flavor #2N341/C (Dallant) were used. All the percentages in the table are by weight.
compound,measurement,setting,value
"COc1ccc(CCC(=O)c2c(O)cc(O[C@@H]3O[C@H](CO)[C@@H](O)[C@H](O)[C@H]3O[C@@H]3O[C@@H](C)[C@H](O)[C@@H](O)[C@H]3O)cc2O)cc1O [NHDC, 1-[4-[[2-O-(6-Deoxy-α-L-mannopyranosyl)-β-D-glucopyranosyl]oxy]-2,6-dihydroxyphenyl]-3-(3-hydroxy-4-methoxyphenyl)propan-1-one]",Masking effect (real),[1]; tested substance 5 ppm,5.00%
same,Masking effect (real),[1]; tested substance 25 ppm,13.33%
same,Masking effect (real),[1]; tested substance 50 ppm,30.00%
same,Masking effect (real),[1]; tested substance 75 ppm,48.33%
same,Masking effect (real),[1]; tested substance 100 ppm,50.00%
same,Amount used for the maximum sugar substitution,[2],3 ppm
same,Maximum sugar substitution without changing the taste profile,[2]; reference with 6% powdered sugar,10%
same,Lingering,[3],4.00
same,Mouthfeel (density),[3],1.75
same,"Off-flavour: menthol, licorice",[3],3.25
same,Time to first sweetness,[3],3.75
same,Time to maximum sweetness,[3],4.25
same,Total sweetness,[3],5.00
same,Amount used for the maximum sucrose substitution,[4],10 ppm
same,Maximum sucrose substitution without changing the taste profile,[4]; reference with 10% added sucrose,15%

# Source: patent US20230054887A1, “SWEETENING AND TASTE-MASKING COMPOSITIONS, PRODUCTS AND USES THEREOF” (HEALTHTECH BIO ACTIVES, S.L.U., priority 2017, published 2023)
